Data on three compounds can be found in patent US8114453B2, “Synergistically heat stable oil media having eicosa pentanoic acid (EPA) and docosa hexaenoic acid (DHA)” (Recon Oil Industries Private Limited, priority 2005, dated 2012).

The conditions of data set [1]: clinical trial, reported in background; cited from earlier work.
Data set [2] in a line: Fatty acid composition of oils before and after heating (air incorporated by stirring) by Gas Liquid Chromatography. The class given is physicochemical. The following applies: from the fish oil source, heated with air incorporated. An excerpt:
The heat stability of the highly unsaturated and easily oxidisable EPA/DHA in the oil blend of the invention, EPA/DHA from available sources of enriched fish oil was blended with groundnut oil in various proportions and the stability of the formulations tested is importantly to further confirm the unexpected and synergistic heat stability achieved by the oil formulation of the invention incorporating the EPA/DHA, oil blends with varying amount of active benefit agent EPA/DHA heated from ambient to upto 220 deg.C were tested. To maximize the process of deterioration, apart from heating at 180 deg.C, 200 deg.C and 220 deg. C., air was incorporated during heating by using a magnetic stirrer.

As for `CC/C=C\C/C=C\C/C=C\CCCCCCCC(=O)O` [ALNA, Alpha linolenic acid], the “Effect on triglyceride levels” value in data set [1] is listed as “not effective to reduce triglyceride levels”. For the compound `CC/C=C\C/C=C\C/C=C\C/C=C\C/C=C\CCCC(=O)O` [EPA, Eicosa Pentaenoic Acid], the “Heat stability of the fatty acid” value in data set [2] is recorded as “heat stable even at temperatures of up to 220 deg. C”. Same read-out and setting: the result for `CC/C=C\C/C=C\C/C=C\C/C=C\C/C=C\C/C=C\CCC(=O)O` [DHA, Docosa Hexaenoic Acid] reads “heat stable even at temperatures of up to 220 deg. C”.
